Measurements taken from ChEMBL document CHEMBL4400515, “Anti-parasitic activity of polyether ionophores” (Eur J Med Chem, 2019).
In brackets after ≈: the same amount, converted by molar mass. Values belong to the molecule of their own block, whether it stands above or below them.

Columns and labels:
[1] = tested on: Cryptosporidium parvum; assay: Antiparasitic activity against Cryptosporidium parvum GP-60 subtype 2a A15G2RI infected in human HCT8 cells assessed as inhibition of parasite development at 0.144 uM measured 27 hrs post infection by qPCR analysis; assay type: functional; conditions: HCT-8, 27 h
[2] = tested on: Plasmodium vinckei petteri; assay: Antimalarial activity against Plasmodium vinckei petteri infected in IOPS OF1 mouse assessed as reduction in parasitemia administered once daily via sc for 4 days; assay type: functional; conditions: 96 h
[3] = tested on: Leishmania donovani; assay: Antileishmanial activity against Leishmania donovani MHOM/SD/001S-2D […] measured after 48 hrs by CellTiter-Glo luminescent cell viability assay; assay type: functional, organism-based
[4] = tested on: Leishmania major; assay: Antileishmanial activity against promastigote stage of Leishmania major MHOM/IL/81/Friedlin transformed from lymph node cultures of infected Balb/c mouse measured after 48 hrs by luminometry; assay type: functional, organism-based
[5] = tested on: Leishmania donovani; assay: Antileishmanial activity against Leishmania donovani MHOM/SD/001S-2D promastigotes transformed from splenic cultures of infected Chester Beatty hamster measured after 48 hrs by CellTiter-Glo luminescent cell viability assay; assay type: functional, organism-based
[6] = tested on: Plasmodium vinckei petteri; assay: Antimalarial activity against Plasmodium vinckei petteri infected in IOPS OF1 mouse assessed as reduction in parasitemia at 10 mg/kg, sc administered once daily for 4 days relative to control; assay type: functional; design: scale not given: the % may be the effect or the level left
[7] = tested on: Toxoplasma gondii; assay: Antiparasitic activity against Toxoplasma gondii infected in Scottish Blackface ewes assessed as mortality at 16.8 to 27.9 mg administered daily for 10 days prior to parasitic infection (reference value: 55.2%); assay type: functional
[8] = tested on: Leishmania major; assay: Antileishmanial activity against […] measured after 48 hrs by luminometry; assay type: functional, organism-based
[9] = tested on: Plasmodium berghei; assay: Antimalarial activity against Plasmodium berghei infected in po dosed mouse; assay type: functional
[10] = tested on: Cryptosporidium parvum; assay: Antiparasitic activity against Cryptosporidium parvum infected in CB.17 SCID mouse assessed as faecal parasite load at 3 mg/kg, administered once daily for 3 days by OW50-FITC staining based flow cytometry relative to control; assay type: functional
[11] = tested on: Plasmodium falciparum; assay: Antiplasmodial activity against trophozoite stage of Plasmodium falciparum 3D7 measured after 48 hrs by [3H]-hypoxanthine incorporation assay; assay type: functional, organism-based
[12] = tested on: Trypanosoma brucei; assay: Antitrypanosomal activity against bloodstream form of Trypanosoma brucei clone 427-221a measured after 72 hrs by microscopic analysis; assay type: functional
[13] = tested on: Trypanosoma brucei; assay: Antitrypanosomal activity against bloodstream form of Trypanosoma brucei clone 427-221a measured after 72 hrs by resazurin dye based assay; assay type: functional
[14] = tested on: Schistosoma mansoni; assay: Antiparasitic activity against Schistosoma mansoni Puerto Rico PR-1 after 48 hrs by fluorescence based lactate release assay; assay type: functional, organism-based; conditions: Puerto Rico PR-1, 48 h
[15] = tested on: Leishmania donovani; assay: Antileishmanial activity against Leishmania donovani MHOM/SD/00/1S-2D promastigotes by luminescence assay; assay type: functional, organism-based
[16] = tested on: Eimeria tenella; assay: Coccidiostat activity against Eimeria tenella infected in po dosed chicken; assay type: functional
[17] = tested on: Plasmodium chabaudi; assay: Antiplasmodial activity against Plasmodium chabaudi infected in Swiss mouse assessed as reduction in parasitemia administered twice daily via ip for 4 days starting from 1.5 hrs post infection; assay type: functional
[18] = tested on: Plasmodium falciparum; assay: Antimalarial activity against Plasmodium falciparum Nigerian infected in human red blood cells after 48 hrs by [3H]-hypoxanthine incorporation assay; assay type: functional, organism-based

SMILES: CC[C@@]1([C@@H]2O[C@@H]([C@H]3O[C@@](O)(CO)[C@H](C)C[C@@H]3C)C[C@@H]2C)CC[C@H]([C@]2(C)CC[C@]3(C[C@H](O)[C@@H](C)[C@@H]([C@@H](C)[C@@H](OC)[C@@H](C)C(=O)O)O3)O2)O1
inhibition at 0.144 µM [1]: 98%
ED50 [2]: 1.1 mg/kg
ED90 [2]: 3.5 mg/kg
EC50 [3]: 0.23 µM
EC50 [4]: 0.09 µM
EC50 [5]: 0.85 µM
Activity [6]: 100%
Activity [7]: 16.7%
EC50 [8]: 0.38 µM

SMILES: CC[C@@]1([C@@H]2O[C@@H]([C@H]3O[C@@](O)(COS(=O)(=O)c4ccc(C)cc4)[C@H](C)C[C@@H]3C)C[C@@H]2C)CC[C@H]([C@]2(C)CC[C@]3(C[C@H](O)[C@@H](C)[C@@H]([C@@H](C)[C@@H](OC)[C@@H](C)C(=O)O)O3)O2)O1
ED50 [9]: 1.25 mg/kg

EC50 [11]: 0.00044 µM
SMILES: CO[C@@H]1[C@@H](OC)[C@H](C)[C@@](O)(CC(=O)O)O[C@H]1[C@H](C)[C@H]1O[C@@]2(CC[C@@](C)([C@H]3CC[C@@](C)([C@@H]4O[C@@H]([C@H]5O[C@](C)(O)[C@H](C)C[C@@H]5C)C[C@@H]4O[C@@H]4C[C@@H](OC)[C@@H](OC)[C@H](C)O4)O3)O2)C[C@H](O)[C@H]1C
Activity [10]: 96%

GI50 [12]: 0.057 µM
MIC [13]: 0.1 to 1 µM (≈ 0.0833 to 0.833 µg/mL)
SMILES: CC[C@@H](C(=O)[C@@H](C)[C@@H](O)[C@H](C)[C@@H]1O[C@@H]([C@@H](CC)C(=O)OCC(F)(F)F)CC[C@@H]1C)[C@H]1O[C@]2(C=C[C@@H](O)[C@]3(CC[C@@](C)([C@H]4CC[C@](O)(CC)[C@H](C)O4)O3)O2)[C@H](C)C[C@@H]1C

SMILES: CC[C@@]1([C@@H]2O[C@@H]([C@H]3O[C@@](O)(COC(=O)Nc4ccc([N+](=O)[O-])cc4)[C@H](C)C[C@@H]3C)C[C@@H]2C)CC[C@H]([C@]2(C)CC[C@]3(C[C@H](O)[C@@H](C)[C@@H]([C@@H](C)[C@@H](OC)[C@@H](C)C(=O)[O-])O3)O2)O1.[Na+]
ED50 [9]: 5 mg/kg

SMILES: CC[C@@H](C(=O)[C@@H](C)[C@@H](O)[C@H](C)[C@@H]1O[C@@H]([C@@H](CC)C(=O)O)CC[C@@H]1C)[C@H]1O[C@]2(C=C[C@@H](O)[C@]3(CC[C@@](C)([C@H]4CC[C@](O)(CC)[C@H](C)O4)O3)O2)[C@H](C)C[C@@H]1C [SALINOMYCIN]
IC50 [14]: 32.6 µM
EC50 [15]: 4 µM

SMILES: CC[C@@]1([C@@H]2O[C@@H]([C@H]3O[C@@](O)(COC(=O)Nc4ccccc4)[C@H](C)C[C@@H]3C)C[C@@H]2C)CC[C@H]([C@]2(C)CC[C@]3(C[C@H](O)[C@@H](C)[C@@H]([C@@H](C)[C@@H](OC)[C@@H](C)C(=O)[O-])O3)O2)O1.[Na+]
ED50 [9]: 4 mg/kg

SMILES: CC[C@@]1([C@@H]2O[C@@H]([C@H]3O[C@@](O)(COC(=O)Nc4ccc(C)cc4)[C@H](C)C[C@@H]3C)C[C@@H]2C)CC[C@H]([C@]2(C)CC[C@]3(C[C@H](O)[C@@H](C)[C@@H]([C@@H](C)[C@@H](OC)[C@@H](C)C(=O)[O-])O3)O2)O1.[Na+]
ED50 [16]: 70 ppm

SMILES: CO[C@@H]1C[C@@H](C[C@H]2CC[C@H](C)[C@H]([C@@H](C)C(=O)O)O2)O[C@]2(O[C@](C)([C@H]3CC[C@@](C)([C@@H]4O[C@@H]([C@H]5O[C@@](O)(CO)[C@H](C)C[C@@H]5C)C[C@@H]4C)O3)C[C@H]2C)[C@@H]1C [NIGERICIN]
ED50 [2]: 1.8 mg/kg
ED90 [2]: 4.6 mg/kg

SMILES: CC[C@@]1([C@@H]2O[C@@H]([C@H]3O[C@@](O)(COC(=O)Nc4ccc(I)cc4)[C@H](C)C[C@@H]3C)C[C@@H]2C)CC[C@H]([C@]2(C)CC[C@]3(C[C@H](O)[C@@H](C)[C@@H]([C@@H](C)[C@@H](OC)[C@@H](C)C(=O)[O-])O3)O2)O1.[Na+]
ED50 [9]: 5 mg/kg

SMILES: CC[C@@]1([C@@H]2O[C@@H]([C@H]3O[C@@](O)(COC(=O)Nc4ccc(Cl)cc4)[C@H](C)C[C@@H]3C)C[C@@H]2C)CC[C@H]([C@]2(C)CC[C@]3(C[C@H](O)[C@@H](C)[C@@H]([C@@H](C)[C@@H](OC)[C@@H](C)C(=O)[O-])O3)O2)O1.[Na+]
ED50 [9]: 2 mg/kg

SMILES: CC[C@@]1([C@@H]2O[C@@H]([C@H]3O[C@@](O)(COC(=O)Nc4ccc(Br)cc4)[C@H](C)C[C@@H]3C)C[C@@H]2C)CC[C@H]([C@]2(C)CC[C@]3(C[C@H](O)[C@@H](C)[C@@H]([C@@H](C)[C@@H](OC)[C@@H](C)C(=O)[O-])O3)O2)O1.[Na+]
ED50 [9]: 16 mg/kg

SMILES: CC[C@@]1([C@@H]2O[C@@H]([C@H]3O[C@@](O)(COC(=O)Nc4ccc(Oc5ccccc5)cc4)[C@H](C)C[C@@H]3C)C[C@@H]2C)CC[C@H]([C@]2(C)CC[C@]3(C[C@H](O)[C@@H](C)[C@@H]([C@@H](C)[C@@H](OC)[C@@H](C)C(=O)[O-])O3)O2)O1.[Na+]
ED50 [9]: 8 mg/kg

SMILES: CC[C@@]1([C@@H]2O[C@@H]([C@H]3O[C@@](O)(COC(=O)Nc4ccc(F)cc4)[C@H](C)C[C@@H]3C)C[C@@H]2C)CC[C@H]([C@]2(C)CC[C@]3(C[C@H](O)[C@@H](C)[C@@H]([C@@H](C)[C@@H](OC)[C@@H](C)C(=O)[O-])O3)O2)O1.[Na+]
ED50 [16]: 70 ppm

SMILES: CC[C@@]1([C@@H]2O[C@@H]([C@H]3O[C@@](O)(COC(=O)NCCc4ccccc4)[C@H](C)C[C@@H]3C)C[C@@H]2C)CC[C@H]([C@]2(C)CC[C@]3(C[C@H](O)[C@@H](C)[C@@H]([C@@H](C)[C@@H](OC)[C@@H](C)C(=O)[O-])O3)O2)O1.[Na+]
ED50 [16]: 50 ppm

SMILES: CCCCNC(=O)[C@H](CC)[C@H]1CC[C@H](C)[C@H]([C@@H](C)[C@H](O)[C@H](C)C(=O)[C@H](CC)[C@H]2O[C@]3(C=C[C@@H](O)[C@]4(CC[C@@](C)([C@H]5CC[C@](O)(CC)[C@H](C)O5)O4)O3)[C@H](C)C[C@@H]2C)O1
GI50 [12]: 0.04 µM
MIC [13]: 0.1 µM (≈ 0.0806 µg/mL)

SMILES: CC[C@@H](C(=O)[C@@H](C)[C@@H](O)[C@H](C)CCc1c(Br)cc(C)c(O)c1C(=O)[O-])[C@H]1O[C@](CC)([C@H]2CC[C@](O)(CC)[C@H](C)O2)C[C@@H]1C.[Na+]
ED50 [17]: 1.4 mg/kg
IC50 [18]: 0.069 µg/mL

SMILES: CC[C@@]1([C@@H]2O[C@@H]([C@H]3O[C@@]4(COC(=O)O4)[C@H](C)C[C@@H]3C)C[C@@H]2C)CC[C@H]([C@]2(C)CC[C@]3(C[C@H](O)[C@@H](C)[C@@H]([C@@H](C)[C@@H](OC)[C@@H](C)C(=O)O)O3)O2)O1
ED50 [9]: 0.75 mg/kg

SMILES: CC[C@@H](C(=O)O)[C@@H]1O[C@@H]([C@@H](C)[C@H](O)[C@H](C)C(=O)[C@H](CC)[C@H]2O[C@]3(C=C[C@@H](O)[C@]4(CC[C@@](C)([C@H]5CC[C@](O)(CC)[C@H](C)O5)O4)O3)[C@H](C)C[C@@H]2C)[C@@H](C)C[C@@H]1C [NARASIN]
EC50 [15]: 2 µM
